# Source: patent US12252524B2, “GIP/GLP1 co-agonist compounds” (Eli Lilly and Company, priority 2018, dated 2025)
# Where two headings read alike, the source gives them in different places. Numbered stars: 1 amine (or outer) side, 2 acyl side, 3 side chain; on linkers, the order of the positions; unused ones are H or OH. Square brackets hold non-standard residues; d marks the D form. Side chains are listed from the residue outwards. Peptide text beside a SMILES is read from it. * marks the point of attachment. C20 diacid = O=C(O)CCCCCCCCCCCCCCCCCCC(=O)*; C18 diacid = O=C(O)CCCCCCCCCCCCCCCCC(=O)*; αMePhe(2-F) = C[C@](N)(Cc1ccccc1F)C(=O)O; γGlu = O=C(O)[C@H](CCC(=O)[*:2])N[*:1]; αMeL = CC(C)C[C@](C)(N)C(=O)O; Orn = NCCC[C@H](N)C(=O)O; AEEA = NCCOCCOCC(=O)O; Aib = CC(C)(N)C(=O)O
# Tests used:
# [1] = single subcutaneous 200 nMol/kg, male CD-1 mice
# Description: The pharmacokinetics of select Examples are evaluated following a single subcutaneous administration of 200 nMol/kg to male CD-1 mice. […] Plasma (K3 EDTA) concentrations are determined using a qualified LC/MS method that measures the intact mass of the Examples. […] Instruments are combined for LC/MS detection.
# [2] = single subcutaneous 50 nMol/kg, male Sprague Dawley rats; mean (SD)
# Description: (§1) The pharmacokinetics of select Examples are evaluated following a single subcutaneous (SC) administration of 50 nMol/kg (dissolved in PBS, pH 7.4) or single 1 μmol/kg (mixed with 250 mM sodium decanoate (“C10”) and 12 mg/mL soybean trypsin inhibitor (SBTI)) intrajejunal (IJ) administration to male Sprague Dawley rats. […] Pharmacokinetic parameters are calculated using individual plasma concentrations. A qualified LC/MS method that measures the intact mass of the Example is used to determine plasma (K3 EDTA) concentrations. Each Example is tested with an analog peptide as an internal standard. Immunoaffinity based precipitation with anti-GIP/GLP1 antibodies is used to extract each test peptide and analog.
# in vivo [3] = conditions: male, Sprague Dawley, rat, plasma, other: intrajejunal, 1 umol/kg
# Description: as §1
# [4] = tested on: CD8+ T cell depleted peripheral blood mononuclear cells; assay: CD4+ T cell assay for potential clinical immunogenicity; conditions: for frequency of positive CD+ T cell response (CDI>2.5): CD4+ T cell assay; for % Donor Response (CD4+ T cell response) / Median Response Strength in positive donors (CDI): Examples 10 uM, KLH 0.33 μM, 7 days
# in vivo [5] = conditions: male, Sprague Dawley, rat, plasma, sc, 50 nmol/kg
# Description: as §1
# human GLP-1R = human GLP-1R (Homo sapiens, UniProt P43220); assay: [125I]-GLP-1 binding (SPA), human GLP-1 receptor; parameters: expressed in transfected cells; crude membranes
# human GLP-1R, sequence (P43220 24-463): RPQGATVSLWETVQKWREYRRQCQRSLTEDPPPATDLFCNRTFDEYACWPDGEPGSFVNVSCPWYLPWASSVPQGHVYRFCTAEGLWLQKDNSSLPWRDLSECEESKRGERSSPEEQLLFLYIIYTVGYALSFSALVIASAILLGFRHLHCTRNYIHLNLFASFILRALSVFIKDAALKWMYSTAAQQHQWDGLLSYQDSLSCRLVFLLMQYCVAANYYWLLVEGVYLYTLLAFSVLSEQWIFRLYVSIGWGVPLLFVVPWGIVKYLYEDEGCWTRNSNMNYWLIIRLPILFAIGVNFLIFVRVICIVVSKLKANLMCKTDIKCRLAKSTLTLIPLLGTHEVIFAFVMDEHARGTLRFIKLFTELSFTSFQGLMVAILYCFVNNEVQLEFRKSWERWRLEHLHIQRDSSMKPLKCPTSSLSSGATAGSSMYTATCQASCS
# In short: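 Assay buffer: HEPES 25 mM, pH 7.4, CaCl2 2.5 mM, MgCl2 1 mM, with EDTA-free protease inhibitors. Receptor came from crude cell membranes prepared by homogenization and centrifugation at 4° C. IC50s came from four-parameter fits (maximum, minimum, IC50, Hill slope) and were expressed as Ki geometric means with SEM.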
# [6] = single subcutaneous 50 nMol/kg, male cynomolgus monkeys
# Description: Pharmacokinetics in male Cynomolgus Monkeys The pharmacokinetics of select Examples are evaluated following a single subcutaneous administration of 50 nMol/kg to male cynomolgus monkeys. […] Peptide plasma (K3 EDTA) concentrations are determined using a qualified LC/MS method that measured the intact mass of the compound. […] Instruments are combined for LC/MS detection.
# human GIP receptor = molecular target: T1, human GIP receptor (Homo sapiens, UniProt P48546); assay: [125I]-GIP binding (SPA), human GIP receptor
# T1 construct: expressed in transfected cells; crude membranes
# T1 sequence (P48546 22-466): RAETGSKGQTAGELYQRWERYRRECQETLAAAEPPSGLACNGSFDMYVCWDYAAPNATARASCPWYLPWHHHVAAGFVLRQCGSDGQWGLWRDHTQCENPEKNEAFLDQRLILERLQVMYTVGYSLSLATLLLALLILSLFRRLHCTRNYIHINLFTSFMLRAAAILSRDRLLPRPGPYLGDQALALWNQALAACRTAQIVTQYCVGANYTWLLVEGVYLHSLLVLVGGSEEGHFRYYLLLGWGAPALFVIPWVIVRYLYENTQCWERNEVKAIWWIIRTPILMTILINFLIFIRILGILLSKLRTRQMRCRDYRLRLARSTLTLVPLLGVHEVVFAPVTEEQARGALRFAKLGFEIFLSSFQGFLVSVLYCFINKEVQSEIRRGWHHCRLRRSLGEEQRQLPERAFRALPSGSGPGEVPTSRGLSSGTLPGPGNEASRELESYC
# [7] = single intrajejunal 1 μmol/kg with 250 mM C10 and 12 mg/mL SBTI, male Sprague Dawley rats; for Cmax/D: mean (SD)
# Description: as §1
Structure (SMILES),AUCINF_D_obs [1],Cmax/D [1],AUCINF_D_obs [2],Cmax/D [2],Tmax (in vivo [3]),frequency of positive CD+ T cell response (CDI>2.5) [4],% Donor Response (CD4+ T cell response) [4],Median Response Strength in positive donors (CDI) [4],CL/F (in vivo [5]),Tmax (in vivo [5]),half-life (in vivo [5]),Ki (human GLP-1R),AUCINF_D_obs [6],Cmax/D [6],Ki (human GIP receptor),AUCINF_D_obs [7],Cmax/D [7]
CC[C@H](C)[C@H](NC(=O)[C@H](CC(C)C)NC(=O)[C@H](Cc1ccc(O)cc1)NC(=O)[C@@H](CCC(=O)O)NC(=O)[C@@H](NC(=O)[C@H](Cc1ccccc1)NC(=O)[C@H](CCC(=O)O)NC(=O)C(C)(C)NC(=O)[C@H](CCC(N)=O)NC(=O)[C@H](C)NC(=O)[C@H](CCCCNC(=O)COCCOCCNC(=O)COCCOCCNC(=O)CC[C@H](NC(=O)CCCCCCCCCCCCCCCCCCC(=O)O)C(=O)O)NC(=O)[C@H](CCC(=O)O)NC(=O)[C@H](CC(=O)O)NC(=O)[C@H](CC(C)C)NC(=O)[C@](C)(CC(C)C)NC(=O)[C@@H](NC(=O)[C@H](CO)NC(=O)[C@H](Cc1ccc(O)cc1)NC(=O)[C@H](CC(=O)O)NC(=O)[C@H](CO)NC(=O)[C@@H](NC(=O)[C@](C)(Cc1ccccc1F)NC(=O)[C@@H](NC(=O)CNC(=O)[C@H](CCC(=O)O)NC(=O)C(C)(C)NC(=O)[C@@H](N)Cc1ccc(O)cc1)[C@@H](C)O)[C@@H](C)O)[C@@H](C)CC)[C@@H](C)CC)C(=O)N[C@@H](CCC(=O)O)C(=O)NCC(=O)NCC(=O)N1CCC[C@H]1C(=O)N[C@@H](CO)C(=O)N[C@@H](CO)C(=O)NCC(=O)N[C@@H](C)C(=O)N1CCC[C@H]1C(=O)N1CCC[C@H]1C(=O)N1CCC[C@H]1C(=O)N[C@@H](CO)C(N)=O [Example 1] (H-Y[Aib]EGT[αMePhe(2-F)]TSDYSI[αMeL]LDEK([AEEA-AEEA-γGlu-C20 diacid])AQ[Aib]EFI[dE]YLIEGGPSSGAPPPS-NH2),135.61 hr*kg*nmol/L/nmol,4.84 kg*nmol/L/nmol,294.2 (30.0) hr*kg*nmol/L/nmol,3.34 (0.22) kg*nmol/L/nmol,1.33 h,low,9%,0.7 CDI,3.42 mL/h/kg,21.3 h,44.7 h,6.67 nM,1458 hr*kg*nmol/L/nmol,6.5 kg*nmol/L/nmol,0.0546 nM,1.31 hr*kg*nmol/L/nmol,0.08 (0.05) kg*nmol/L/nmol
CC[C@H](C)[C@H](NC(=O)[C@H](CC(C)C)NC(=O)[C@H](Cc1ccc(O)cc1)NC(=O)[C@@H](CCC(=O)O)NC(=O)[C@@H](NC(=O)[C@H](Cc1ccccc1)NC(=O)[C@H](CCC(=O)O)NC(=O)C(C)(C)NC(=O)[C@H](CCC(N)=O)NC(=O)[C@H](C)NC(=O)[C@H](CCCCNC(=O)COCCOCCNC(=O)COCCOCCNC(=O)CC[C@H](NC(=O)CCCCCCCCCCCCCCCCC(=O)O)C(=O)O)NC(=O)[C@H](CCCN)NC(=O)[C@H](CC(=O)O)NC(=O)[C@H](CC(C)C)NC(=O)[C@](C)(CC(C)C)NC(=O)[C@@H](NC(=O)[C@H](CO)NC(=O)[C@H](Cc1ccc(O)cc1)NC(=O)[C@H](CC(=O)O)NC(=O)[C@H](CO)NC(=O)[C@@H](NC(=O)[C@](C)(Cc1ccccc1F)NC(=O)[C@@H](NC(=O)CNC(=O)[C@H](CCC(=O)O)NC(=O)C(C)(C)NC(=O)[C@@H](N)Cc1ccc(O)cc1)[C@@H](C)O)[C@@H](C)O)[C@@H](C)CC)[C@@H](C)CC)C(=O)N[C@@H](CCC(=O)O)C(=O)NCC(=O)NCC(=O)N1CCC[C@H]1C(=O)N[C@@H](CO)C(=O)N[C@@H](CO)C(=O)NCC(=O)N[C@@H](C)C(=O)N1CCC[C@H]1C(=O)N1CCC[C@H]1C(=O)N1CCC[C@H]1C(=O)N[C@@H](CO)C(N)=O [Example 2] (H-Y[Aib]EGT[αMePhe(2-F)]TSDYSI[αMeL]LD[Orn]K([AEEA-AEEA-γGlu-C18 diacid])AQ[Aib]EFI[dE]YLIEGGPSSGAPPPS-NH2; N-terminus assumed),77.23 hr*kg*nmol/L/nmol,5.4 kg*nmol/L/nmol,231.7 (9.6) hr*kg*nmol/L/nmol,5.19 (0.20) kg*nmol/L/nmol,0.25 h,low,22%,3.68 CDI,4.32 mL/h/kg,14.7 h,20.3 h,2.35 nM,2059 hr*kg*nmol/L/nmol,11.7 kg*nmol/L/nmol,0.06 nM,6.6 hr*kg*nmol/L/nmol,0.56 (0.40) kg*nmol/L/nmol
CC[C@H](C)[C@H](NC(=O)[C@H](CC(C)C)NC(=O)[C@H](Cc1ccc(O)cc1)NC(=O)[C@@H](CCC(=O)O)NC(=O)[C@@H](NC(=O)[C@H](Cc1ccccc1)NC(=O)[C@H](CCC(=O)O)NC(=O)C(C)(C)NC(=O)[C@H](CCC(N)=O)NC(=O)[C@H](C)NC(=O)[C@H](CCCCNC(=O)COCCOCCNC(=O)COCCOCCNC(=O)CC[C@H](NC(=O)CCCCCCCCCCCCCCCCCCC(=O)O)C(=O)O)NC(=O)[C@H](CCCN)NC(=O)[C@H](CC(=O)O)NC(=O)[C@H](CC(C)C)NC(=O)[C@](C)(CC(C)C)NC(=O)[C@@H](NC(=O)[C@H](CO)NC(=O)[C@H](Cc1ccc(O)cc1)NC(=O)[C@H](CC(=O)O)NC(=O)[C@H](CO)NC(=O)[C@@H](NC(=O)[C@](C)(Cc1ccccc1F)NC(=O)[C@@H](NC(=O)CNC(=O)[C@H](CCC(=O)O)NC(=O)C(C)(C)NC(=O)[C@@H](N)Cc1ccc(O)cc1)[C@@H](C)O)[C@@H](C)O)[C@@H](C)CC)[C@@H](C)CC)C(=O)N[C@@H](CCC(=O)O)C(=O)NCC(=O)NCC(=O)N1CCC[C@H]1C(=O)N[C@@H](CO)C(=O)N[C@@H](CO)C(=O)NCC(=O)N[C@@H](C)C(=O)N1CCC[C@H]1C(=O)N1CCC[C@H]1C(=O)N1CCC[C@H]1C(=O)N[C@@H](CO)C(N)=O [Example 3],158.49 hr*kg*nmol/L/nmol,4.42 kg*nmol/L/nmol,371.8 (21.8) hr*kg*nmol/L/nmol,4.71 (0.50) kg*nmol/L/nmol,0.33 h,low,0%,–,2.7 mL/h/kg,21.3 h,32.1 h,2.23 nM,3420 hr*kg*nmol/L/nmol,11.38 kg*nmol/L/nmol,0.0458 nM,8.45 hr*kg*nmol/L/nmol,0.47 (0.16) kg*nmol/L/nmol
